Measurements as given in the NIST ThermoML archive (doi:10.1016/j.fluid.2010.10.028).
Numbers after ± are expanded uncertainties.

Assay: xn = mol fraction of the nth substance listed
Settings: Liquid, Vibrating tube method

Compound: CC(C)=O [acetone] + CCCCCCC
- mass density (367.48 K, 69840 kPa, x1 = 0.8992): 761.04 ± 1.4 kg/m3
- mass density (367.48 K, 74790 kPa, x1 = 0.7024): 736.93 ± 1.5 kg/m3
- mass density (367.48 K, 74820 kPa, x1 = 0.4): 764.83 ± 1.4 kg/m3
- mass density (367.48 K, 74820 kPa, x1 = 0.8992): 764.83 ± 1.4 kg/m3
- mass density (367.48 K, 74880 kPa, x1 = 0.611): 727.57 ± 1.5 kg/m3
- mass density (367.48 K, 79790 kPa, x1 = 0.4): 768.48 ± 1.4 kg/m3
- mass density (367.48 K, 79790 kPa, x1 = 0.8992): 768.48 ± 1.4 kg/m3
- mass density (367.48 K, 84760 kPa, x1 = 0.7024): 743.91 ± 1.5 kg/m3
- mass density (367.48 K, 84780 kPa, x1 = 0.4): 772.02 ± 1.5 kg/m3
- mass density (367.48 K, 84780 kPa, x1 = 0.8992): 772.02 ± 1.4 kg/m3
- mass density (367.48 K, 84860 kPa, x1 = 0.611): 734.42 ± 1.5 kg/m3
- mass density (367.48 K, 89740 kPa, x1 = 0.4): 775.41 ± 1.5 kg/m3
- mass density (367.48 K, 89740 kPa, x1 = 0.8992): 775.41 ± 1.5 kg/m3
- mass density (367.48 K, 89840 kPa, x1 = 0.611): 737.67 ± 1.5 kg/m3
- mass density (367.48 K, 94810 kPa, x1 = 0.611): 740.81 ± 1.6 kg/m3
- mass density (367.48 K, 99700 kPa, x1 = 0.4): 781.91 ± 1.5 kg/m3
- mass density (367.48 K, 99700 kPa, x1 = 0.8992): 781.91 ± 1.5 kg/m3
- mass density (367.48 K, 104670 kPa, x1 = 0.4): 785.01 ± 1.5 kg/m3
- mass density (367.48 K, 104670 kPa, x1 = 0.8992): 785.01 ± 1.5 kg/m3
- mass density (367.48 K, 104780 kPa, x1 = 0.611): 746.78 ± 1.6 kg/m3
- mass density (367.48 K, 109630 kPa, x1 = 0.4): 788.01 ± 1.6 kg/m3
- mass density (367.48 K, 109630 kPa, x1 = 0.8992): 788.01 ± 1.5 kg/m3
- mass density (367.48 K, 114860 kPa, x1 = 0.611): 752.48 ± 1.6 kg/m3
- mass density (367.48 K, 119560 kPa, x1 = 0.4): 793.8 ± 1.6 kg/m3
- mass density (367.48 K, 119560 kPa, x1 = 0.8992): 793.8 ± 1.6 kg/m3
- mass density (367.48 K, 119860 kPa, x1 = 0.611): 755.19 ± 1.7 kg/m3
- mass density (367.48 K, 124530 kPa, x1 = 0.4): 796.59 ± 1.6 kg/m3
- mass density (367.48 K, 124530 kPa, x1 = 0.8992): 796.59 ± 1.6 kg/m3
- mass density (367.48 K, 129810 kPa, x1 = 0.4): 799.46 ± 1.6 kg/m3
- mass density (367.48 K, 129810 kPa, x1 = 0.8992): 799.46 ± 1.6 kg/m3
- mass density (367.49 K, 1150 kPa, x1 = 0.492): 636.24 ± 1.2 kg/m3
- mass density (367.49 K, 1160 kPa, x1 = 0.801): 665.36 ± 1.2 kg/m3
- mass density (367.49 K, 1370 kPa, x1 = 0.4): 680.97 ± 1.2 kg/m3
- mass density (367.49 K, 1370 kPa, x1 = 0.8992): 680.97 ± 1.2 kg/m3
- mass density (367.49 K, 4860 kPa, x1 = 0.801): 672.53 ± 1.2 kg/m3
- mass density (367.49 K, 4870 kPa, x1 = 0.492): 643.34 ± 1.2 kg/m3
- mass density (367.49 K, 4870 kPa, x1 = 0.611): 651.91 ± 1.2 kg/m3
- mass density (367.49 K, 9840 kPa, x1 = 0.801): 681.17 ± 1.2 kg/m3
- mass density (367.49 K, 9860 kPa, x1 = 0.492): 651.84 ± 1.2 kg/m3
- mass density (367.49 K, 14860 kPa, x1 = 0.801): 688.96 ± 1.2 kg/m3
- mass density (367.49 K, 14870 kPa, x1 = 0.492): 659.41 ± 1.2 kg/m3
- mass density (367.49 K, 14880 kPa, x1 = 0.611): 668.22 ± 1.2 kg/m3
- mass density (367.49 K, 19850 kPa, x1 = 0.801): 696.01 ± 1.2 kg/m3
- mass density (367.49 K, 19860 kPa, x1 = 0.492): 666.25 ± 1.3 kg/m3
- mass density (367.49 K, 24850 kPa, x1 = 0.801): 702.51 ± 1.3 kg/m3
- mass density (367.49 K, 29860 kPa, x1 = 0.801): 708.54 ± 1.3 kg/m3
- mass density (367.49 K, 34850 kPa, x1 = 0.492): 683.77 ± 1.3 kg/m3
- mass density (367.49 K, 34860 kPa, x1 = 0.801): 714.16 ± 1.3 kg/m3
- mass density (367.49 K, 34950 kPa, x1 = 0.4): 729.18 ± 1.3 kg/m3
- mass density (367.49 K, 34950 kPa, x1 = 0.8992): 729.18 ± 1.3 kg/m3
- mass density (367.49 K, 39860 kPa, x1 = 0.611): 698.15 ± 1.3 kg/m3
- mass density (367.49 K, 44850 kPa, x1 = 0.492): 693.62 ± 1.4 kg/m3
- mass density (367.49 K, 54840 kPa, x1 = 0.801): 733.6 ± 1.4 kg/m3
- mass density (367.49 K, 59920 kPa, x1 = 0.611): 716.21 ± 1.4 kg/m3
- mass density (367.49 K, 69900 kPa, x1 = 0.611): 723.93 ± 1.4 kg/m3
- mass density (367.49 K, 79870 kPa, x1 = 0.611): 731.07 ± 1.5 kg/m3
- mass density (367.49 K, 94730 kPa, x1 = 0.4): 778.72 ± 1.5 kg/m3
- mass density (367.49 K, 94730 kPa, x1 = 0.8992): 778.72 ± 1.5 kg/m3
- mass density (367.49 K, 99800 kPa, x1 = 0.611): 743.84 ± 1.6 kg/m3
- mass density (367.49 K, 99840 kPa, x1 = 0.492): 733.62 ± 1.6 kg/m3
- mass density (367.49 K, 104810 kPa, x1 = 0.492): 736.49 ± 1.6 kg/m3
- mass density (367.49 K, 109800 kPa, x1 = 0.492): 739.28 ± 1.6 kg/m3
- mass density (367.49 K, 109850 kPa, x1 = 0.611): 749.68 ± 1.6 kg/m3
- mass density (367.49 K, 114600 kPa, x1 = 0.4): 790.95 ± 1.6 kg/m3
- mass density (367.49 K, 114600 kPa, x1 = 0.8992): 790.95 ± 1.5 kg/m3
- mass density (367.49 K, 114760 kPa, x1 = 0.492): 742 ± 1.7 kg/m3
- mass density (367.49 K, 119830 kPa, x1 = 0.492): 744.68 ± 1.7 kg/m3
- mass density (367.49 K, 124840 kPa, x1 = 0.492): 747.26 ± 1.7 kg/m3
- mass density (367.49 K, 124860 kPa, x1 = 0.611): 757.81 ± 1.7 kg/m3
- mass density (367.49 K, 129850 kPa, x1 = 0.492): 749.77 ± 1.8 kg/m3
- mass density (367.49 K, 129850 kPa, x1 = 0.611): 760.39 ± 1.7 kg/m3
- mass density (367.5 K, 24850 kPa, x1 = 0.492): 672.52 ± 1.3 kg/m3
- mass density (367.5 K, 29850 kPa, x1 = 0.492): 678.35 ± 1.3 kg/m3
- mass density (367.5 K, 39850 kPa, x1 = 0.801): 719.44 ± 1.3 kg/m3
- mass density (367.5 K, 39860 kPa, x1 = 0.492): 688.84 ± 1.3 kg/m3
- mass density (367.5 K, 44870 kPa, x1 = 0.801): 724.43 ± 1.3 kg/m3
- mass density (367.5 K, 49850 kPa, x1 = 0.492): 698.13 ± 1.4 kg/m3
- mass density (367.5 K, 49850 kPa, x1 = 0.801): 729.14 ± 1.4 kg/m3
- mass density (367.5 K, 54850 kPa, x1 = 0.492): 702.41 ± 1.4 kg/m3
- mass density (367.5 K, 59830 kPa, x1 = 0.801): 737.85 ± 1.4 kg/m3
- mass density (367.5 K, 59870 kPa, x1 = 0.492): 706.5 ± 1.4 kg/m3
- mass density (367.5 K, 64830 kPa, x1 = 0.492): 710.35 ± 1.4 kg/m3
- mass density (367.5 K, 64930 kPa, x1 = 0.801): 742.02 ± 1.4 kg/m3
- mass density (367.5 K, 69830 kPa, x1 = 0.492): 714.07 ± 1.5 kg/m3
- mass density (367.5 K, 69910 kPa, x1 = 0.801): 745.93 ± 1.4 kg/m3
- mass density (367.5 K, 74910 kPa, x1 = 0.801): 749.67 ± 1.4 kg/m3
- mass density (367.5 K, 74930 kPa, x1 = 0.492): 717.72 ± 1.5 kg/m3
- mass density (367.5 K, 79900 kPa, x1 = 0.801): 753.27 ± 1.4 kg/m3
- mass density (367.5 K, 79920 kPa, x1 = 0.492): 721.13 ± 1.5 kg/m3
- mass density (367.5 K, 84870 kPa, x1 = 0.801): 756.74 ± 1.5 kg/m3
- mass density (367.5 K, 84880 kPa, x1 = 0.492): 724.42 ± 1.5 kg/m3
